In patent publication US20050164903A1, “Complexed surfactant system” (priority 2001, published 2005):
“And” between values parts separate entries of the source, which are not always exact repeats. Equal entries are not always repeated. “Also recorded” adds a separate entry of the source.

How the values were obtained:
[1] = Phase stability (appearance) of sample solutions; conditions: for Phase stability (appearance of sample solution): 1% aqueous solution
Text: Concentration of a mixed system was controlled to 2% aqueous solution, and a mixing ratio of SLS and the cationic compound was controlled to 1:1 by mole ratio so that changes in physical properties could be remarkably shown (Table 1).

[2] = Surface tension and cmc, Kruss tensiometer K12; type: physicochemical
Procedure: Samples of which surface tensions were to be measured were prepared by mixing SLS and a cationic compound in a mole ratio of 1:1, wherein deionized water was used as water, and a container for measurement was immersed in a cleaning solution for more than 3 hours, washed with water and acetone, dried in an oven, and then used.
A ring method was used, and after measuring 5 times, a mean value was taken. Solutions of 1%, 0.1%, 0.01%, and 0.001% by weight ratio of each of the cationic compounds were prepared to use for the tests.

[3] = Foaming property (initial foamability and foam stability), semi-micro TK method; type: physicochemical; conditions: 1% solution
Text: As samples for measuring initial foamability and foam stability, samples prepared under the same conditions as those used for measuring Krafft point were used (Table 14). […] The semi-micro TK method was used for measurement, and mean values were taken after measuring three times.
The tests were repeated three times and a mean value was taken.
Experiments were repeated three times, and a mean value was taken. For the experiment, a 1% aqueous solution was used.

[4] = Measurement of Krafft point (cloudiness on cooling, transparency on re-heating); type: physicochemical; conditions: 1% solution
Procedure: In the Krafft point test, the temperature when the solution clouded through the previous test becomes transparent again while elevating the temperature were measured.
The temperature when cloudiness begins was measured while cooling the transparent cationic compound solution (condition of lowering temperature). Additionally, the temperature when the solution becomes transparent was measured while elevating the temperature of the cloudy solution (condition of elevating temperature).
Also, while elevating the temperature of the clouded solution, temperatures when the solutions became transparent again were measured (condition when elevating temperature).

[5] = Stability to hard water (10,000 ppm CaCl2 hard water added until cloudiness); type: physicochemical; conditions: for Precipitation in hard water: 0.5% (weight ratio), 100 ml sample
Procedure: After dissolving 11.69 g of CaCl2.2H2O in 1 liter of water to prepare hard water of 10,000 ppm, it was slowly added to a 0.5% aqueous solution sample, and stability to hard water was evaluated using the amount of hard water added until cloudiness began.
Hard water of 10,000 ppm prepared by dissolving 11.69 g of CaCl2.2H2O in 1 L of water was used for the tests. Stability to hard water was measured by adding hard water until pearl is appear, using 0.5% (weight ratio) of the cationic compound and 100 ml of the sample. This test was repeated by three times, and a mean value was taken.
Hard water at a 10,000 ppm concentration prepared by dissolving 11.69 g of CaCl2.2H2O in 1 L of water was used for the experiments. […] The tests were repeated by three times, and a mean value was measured.

[6] = Solubility noted for synthesized compounds; type: physicochemical; conditions: noted with the synthesis

## 1.6-12-(N,N-methyloctylamino)ethanollhexane [Synthesis Example 17]
[1]
  Phase stability (appearance of sample solution): cloudiness
[1]; cationic compound in water
  Concentration at which the solution became transparent: 0.1 wt %
[2]; concentration 0.01%
  Surface tension: 47.50 mN/m
[2]; concentration 0.1%
  Surface tension: 33.90 mN/m
[2]; concentration 1%
  Surface tension: 27.91 mN/m
[3]
  Foaming property, result in words: No foaming

## CCCCCCCCCCCCOS(=O)(=O)[O-].[Na+] [SLS, sodium lauryl sulfate, reference compound]
[4]
  Krafft point, when elevating temperature: solution transparent again: 14 °C
[4]; sulfate
  Krafft point, when lowering (dropping) temperature: cloudiness begins: 2˜3 °C and 2 °C and 2-3 °C
[5]; stability to hard water
  Hard water concentration: 310 ppm
[2]; concentration 0.01%
  Surface tension: 57.18 mN/m
[2]; concentration 0.1%
  Surface tension: 25.19 mN/m
[2]; concentration 1%
  Surface tension: 35.92 mN/m
[3]
  Foaming property, result in words: maintains foam for 5 minutes almost constantly
  Foaming property, initial foamability, 0 min.: 233 mL

## CCCCCCCC[N+](C)(C)CCO [Synthesis Example 2, N-(dimethyloctylamino)ethanol]
[6]
  Solubility: insoluble in acetone

## CC[N+](C)(C)CCO [Synthesis Example 4, N-(dimethylethylamino)ethanol]
[6]
  Solubility: soluble in acetone, insoluble in n-hexane

## C[N+](C)(C)CCO [Synthesis Example 5, N-(trimethylamino)ethanol]
[6]
  Solubility: insoluble in acetone

## C[N+](C)(CCO)CCCCCC[N+](C)(C)CCO.[I-].[I-] [Synthesis Example 14, 1,6-[2-(N,N-dimethylamino)ethanol]hexane]
[1]
  Phase stability (appearance of sample solution): transparent
[2]; concentration 0.01%
  Surface tension: 71.41 mN/m
[2]; concentration 0.1%
  Surface tension: 70.04 mN/m
[2]; concentration 1%
  Surface tension: 59.49 mN/m
[3]
  Foaming property, result in words: did not produced foam; also recorded: No foaming

## CCCCCCCCCCCC[N+](C)(C)[O-] [Synthesis Example 19, N-Dimethyl Lauryl Amineoxide]
[1]
  Phase stability (appearance of sample solution): transparent
[5]
  Precipitation in hard water: not precipitated
[2]; concentration 0.001%
  Surface tension: 53.88 mN/m
[2]; concentration 0.01%
  Surface tension: 31.67 mN/m
[2]; concentration 0.1%
  Surface tension: 29.59 mN/m
[2]; concentration 1%
  Surface tension: 31.94 mN/m
[3]
  Foaming property, result in words: foam immediately disappeared
  Foaming property, initial foamability, 0 min.: 210 mL
[3]; 1 min.
  Foaming property, 1 min.: 55 mL

## CCCC[N+](C)([O-])CCCCCC[N+](C)([O-])CCCC (stereo not drawn) [Synthesis Example 23, 16-(N,N-butylmethylamineoxyl)hexane]
[1]
  Phase stability (appearance of sample solution): transparent
[5]
  Precipitation in hard water: not precipitated
[2]; concentration 0.01%
  Surface tension: 64.05 mN/m
[2]; concentration 0.1%
  Surface tension: 56.46 mN/m
[2]; concentration 1%
  Surface tension: 46.51 mN/m
[3]
  Foaming property, result in words: did not produce foam

## N-(butyidimethylamino)ethanol [Synthesis Example 3]
[6]
  Solubility: insoluble in acetone

## N-(dimethyldodecylamino ethanol (EO)4 [Synthesis Example 7]
[6]
  Solubility: soluble in acetone
